Experimental data taken from patent publication US4327100A, “2-(Alkoxy-phenyl)-imidazo(4,5-b)pyridines and salts thereof” (Boehringer Ingelheim GmbH, priority 1979, dated 1982).

Experiments:
Assay type in all cases: in vivo
anesthetized cat = assay: Effect on blood pressure and positive inotropic activity in the anesthetized cat; conditions: 2.0 mg/kg i.v., average value, at least 3 cats
Protocol: 1. Determination of the effect on blood pressure and of the positive inotropic activity in the anesthetized cat
The test was performed on cats which were anesthetized with pentobarbital sodium (40 mg/kg i.p.). The animals breathed spontaneously. The arterial blood pressure was measured in the aorta abdominalis by a Statham pressure transducer (P 23 Dc). The positive inotropic effect was determined by measuring the pressure in the left ventricle by means of a catheter tip manometer (Millar PC 360 A). The contractility parameter (dp/dtmax) was registered by means of an analog differentiating circuit.
The test compound was injected into the vena femoralis. Physiological sodium chloride solution or polydiol 200 was used as solvent. Each substance was tested in at least 3 cats, dose 2 mg/kg i.v.

white mice = assay: Acute toxicity in white mice after oral administration; conditions: single oral dose 300 mg/kg, observation time 14 days
Protocol: (§1) The acute toxicity was determined in white mice after oral administration of a single dose of 300 mg/kg (observation time: 14 days).

[1] = as above; conditions: mouse, in vivo, single oral dose 300 mg/kg, observation time 14 days
Protocol: as §1

For `COc1ccc(-c2nc3ncccc3[nH]2)c(OCC[S+]([O-])c2cc(OC)c(OC)cc2C)c1` (centres unmarked) [D, 2-{2-[2-(2-Methyl-4,5-dimethoxyphenylsulfinyl)-ethoxy]-4-methoxyphenyl}-imidazo[4,5-b]pyridine], the “Change in blood pressure, second value of the printed pair (diastolic, not labelled in the patent)” value (shortened to “Change … (diastolic, not labelled in the patent)”) (anesthetized cat) was 5 mmHg, the animals died (white mice) was 0 out of 6 and the LD50 at 336 h [1] was greater than 300 mg/kg.

In the case of `COc1ccc(-c2nc3ncccc3[nH]2)c(OCC[S+]([O-])c2ccc(C)cc2)c1` (centres unmarked) [C, 2-{2-[2-(4-Methylphenylsulfinyl)-ethoxy]-4-methoxyphenyl}-imidazo[4,5-b]pyridine], the “Change … (diastolic, not labelled in the patent)” value (anesthetized cat) is reported as 45 mmHg, the animals died (white mice) is reported as 0 out of 6 and the LD50 at 336 h [1] is reported as greater than 300 mg/kg.

For `COc1ccc(-c2nc3ncccc3[nH]2)c(OCC[S+]([O-])c2ccccc2)c1` (centres unmarked) [A, 2-[2-(2-Phenylsulfinyl-ethoxy)-4-methoxyphenyl]imidazo[4,5-b]pyridine], the “Change … (diastolic, not labelled in the patent)” value (anesthetized cat) was 20 mmHg.

In the case of `COc1ccc(-c2nc3ncccc3[nH]2)c(OCC[S+]([O-])c2ccc([N+](=O)[O-])cc2)c1` (centres unmarked) [E, 2-{2-[2-(4-Nitrophenylsulfinyl)-ethoxy]-4-methoxyphenyl}-imidazo[4,5-b]pyridine], the “Change … (diastolic, not labelled in the patent)” value (anesthetized cat) is reported as 32 mmHg.

With `COc1ccc(-c2nc3ncccc3[nH]2)c(OCC[S+]([O-])c2ccc(Cl)cc2)c1` (centres unmarked) [B, 2-{2-[2-(4-Chlorophenylsulfinyl)-ethoxy]-4-methoxyphenyl}-imidazo-[4,5-b]pyridine] the “Change … (diastolic, not labelled in the patent)” value (anesthetized cat) was 42 mmHg, the animals died (white mice) was 0 out of 6 and the LD50 at 336 h [1] was greater than 300 mg/kg.
